This is an account of results in patent publication EP2891491A1, “Use of (r)-phenylpiracetam for the treatment of sleep disorders” (Merz Pharma GmbH & Co. KGaA, priority 2014, dated 2015).

Usually half-life stands for the time in which the quantity being followed falls by half.

For data set [1], the system named is rats. The data set can be described thus: motivation tests: progressive ratio task, cost-benefit choice test, consumption test. The data set is classed as in vivo. As to the method:
EXAMPLE 6: Effect of (R)-phenylpiracetam in motivation tests - Figs. 5, 6, 7, 8
Methylphenidate purchased from Sigma (Taufkirchen, Germany) was dissolved in distilled water fresh for each test day. D-Amphetamine purchased from Sigma (Taufkirchen, Germany) was dissolved in 0.9% sterile NaCl solution fresh for each test day. (R)-Phenylpiracetam was dissolved in distilled water fresh for each test day.
One hundred and three male Sprague-Dawley rats (Janvier, Le Genest-St-Isle, France) weighing 225-250 g on arrival were used.
The animals were kept under standard laboratory conditions in groups of up to 4 per care with ad libitum access to water. Standard diet for rodents (Altromin) was available to the animals at 15 g per animal/day
For each test described below, two independent experiments were performed using an identical protocol. After continuous reinforcement training (CRF) training (see below) all animals were assigned to treatment groups, such that performance across all the groups was similar. The treatment groups were evenly distributed throughout the caging system.
In experiment 1 and 2 the following protocols were used:
Overview: Three tests were performed in a consecutive manner on subsequent days. On day 1-2, animals were habituated individually to Skinner boxes in two sessions, one per day, for 30 min. Animals received "free" food pellets at a random time (one pellet per minute on average). On days 3-8 animals were trained in Skinner boxes on a continuous reinforcement schedule (one pellet per lever press). On days 9-10 they were tested in the progressive ratio test (Test 1) off-drug, on days 11-12 on-drug. On day 13, a choice test (Test 2) was performed on-drug, on day 14, a consumption test (Test 3) was performed on-drug. Below, tests are described in detail.
Behavioral testing was conducted in 12 operant test chambers (Med Associates, St. Albans, USA). Each chamber was equipped with a retractable lever, a food dispenser with receptacle, an overhead house light and two stimulus lights, one above the lever and the other above the food receptacle. An infrared photocell beam detected nose pokes into the food receptacle. The apparatus was controlled by a computer system (SmartControl®-Interface and MedPC-software, Med Associates, St. Albans, USA). The light above the food receptacle indicated the delivery of a food pellet in the receptacle. Rats were first habituated to the operant boxes for two sessions (30 min each) on two consecutive days. Thereafter, animals were trained for six sessions on the CRF schedule for 30 min. Followed by 4 sessions (two session off-drug followed by two sessions on-drug) of an increasing fixed ratio (FR) schedule in steps of 5, with 3 repetitions of each step (i.e. 1-1-1; 5-5-5; 10-10-10; ...). When the required FR value of each trial was achieved the light above the food receptacle indicated the delivery of a single food pellet (45 mg, Bioserve, USA). The light remained on until the rat poked its nose in the receptacle. Lever presses while the light was on were counted as perseverative lever presses; they were counted but had no programmed consequences. […] For each session, the value of the last completed ratio (breaking point) was recorded as well as the amount of received rewards, the perseverative lever presses, the duration of the session and the latency to respond. Animals of all treatment groups received respective vehicle/drug infusions 30 min pre-test on the final two sessions involving testing under a PR schedule.
In this task the rats had the choice between working for their preferred food (Bioserve pellets) by pressing the lever on a PR schedule as described above or obtaining lab chow being freely available in a dish (about 15 g) within the operant chamber. The food receptacle and the lever were positioned on the same wall of the operant chamber, the dish containing the lab chow was situated in a corner on the opposite side of the operant chamber. […]

For data set [2] the following is noted: just slightly stronger with (R)- than with (S)-phenylpiracetam; cited from earlier work.
The subject of data set [3] is subjects with PD and EDS. To be noted: 200 to 400 mg/day vs placebo, 40 subjects with PD and EDS; cited from earlier work.
The conditions of data set [4]: humans, administered orally; cited from earlier work.

In the case of `NC(=O)CN1C[C@H](c2ccccc2)CC1=O` [(S)-phenylpiracetam, reference compound], the results for the effect on motivation entry in data set [1] (100 mg/kg) and in data set [1] (200 mg/kg) were “only a very weak effect” and “no significant effect”, respectively. Besides, in data set [1] (100 mg/kg, times lower than (R)-phenylpiracetam), the “effect on motivation relative to (R)-phenylpiracetam” value stood at 2.5 times. Besides, the “locomotor activity in the open-field test” value in data set [2] was “significant increase”.

In the case of `NC(=O)C[S+]([O-])C(c1ccccc1)c1ccccc1` (stereo not drawn) [modafinil], the “Epworth sleepiness score (primary outcome measure) and secondary outcome measures” value in data set [3] is given as “no benefit”.

`NC(=O)CN1CC(c2ccccc2)CC1=O` (racemic) [phenylpiracetam, 2-(4-phenyl-2-oxopyrrolidin-1-yl)acetamide]: the half-life in data set [4] was 3 to 5 h.
